From patent US20260232629A1, “Covalent Degraders of Oncogenic Transcription Factors” (The Regents of the University of California, priority 2023, published 2026)

Assays:
[1] = molecular target: T1, CTNNB1 with a N-terminal HiBiT tag (Homo sapiens, UniProt P35222); experiment: CTNNB1 HiBiT cell line assay (Nano-Glo HiBiT lytic detection); assay type: cell-based; settings: HEK293 cells expressing endogenous N-terminal HiBiT-tagged CTNNB1
T1 construct: N-terminal HiBiT tag incorporated into the endogenous loci of CTNNB1; host or cells: HEK293 (CTNNB1 HiBiT knock-in line)
T1 sequence (P35222 1-781): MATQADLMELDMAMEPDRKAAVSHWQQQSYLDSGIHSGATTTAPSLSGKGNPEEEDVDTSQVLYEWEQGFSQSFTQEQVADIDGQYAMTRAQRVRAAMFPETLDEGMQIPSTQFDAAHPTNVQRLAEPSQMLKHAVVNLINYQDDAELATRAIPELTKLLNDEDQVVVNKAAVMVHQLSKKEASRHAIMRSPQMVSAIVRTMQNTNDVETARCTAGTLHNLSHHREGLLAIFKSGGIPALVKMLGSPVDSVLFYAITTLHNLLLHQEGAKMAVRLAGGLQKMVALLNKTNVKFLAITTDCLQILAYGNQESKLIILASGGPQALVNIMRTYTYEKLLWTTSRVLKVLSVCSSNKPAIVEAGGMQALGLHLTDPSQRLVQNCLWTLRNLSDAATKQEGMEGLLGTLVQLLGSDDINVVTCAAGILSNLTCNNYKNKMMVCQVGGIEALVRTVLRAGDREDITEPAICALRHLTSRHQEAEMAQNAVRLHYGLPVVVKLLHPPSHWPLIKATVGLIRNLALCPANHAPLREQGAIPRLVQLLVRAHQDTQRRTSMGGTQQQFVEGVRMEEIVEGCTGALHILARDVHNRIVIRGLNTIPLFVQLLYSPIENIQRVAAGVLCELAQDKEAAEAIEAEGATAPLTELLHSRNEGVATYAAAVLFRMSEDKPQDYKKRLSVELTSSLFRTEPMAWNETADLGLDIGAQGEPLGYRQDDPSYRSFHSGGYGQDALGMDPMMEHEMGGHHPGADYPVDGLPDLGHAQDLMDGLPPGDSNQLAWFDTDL
Protocol: To identify a covalent degrader of CTNNB1, we screened a library of 2100 cysteine-reactive covalent ligands consisting of acrylamides and chloroacetamides in HEK293 cells expressing CTNNB1 with a N-terminal HiBiT tag incorporated into the endogenous loci of CTNNB1. We identified 17 hits lowered CTNNB1 levels.
Covalent ligand screen and dose responses were conducted using Promega Nano-Glo HiBiT Lytic Detection System (N3040) and CellTiter-Glo 2.0 Assay (G9242). HiBiT cells were seeded into 96-well plates (Corning 3917) at 35,000 cells per 100 μL of media and were left overnight to adhere. Cells were treated with 25 μL of media containing 1:125 dilution from a 1000×DMSO compound stock and treated for either 6 hrs, 12 hrs, or 24 hrs. […] 125 μL of CTG or Lytic detection system reagents were added to each well. To assess the cells in the supernatant, half of the plates had the media removed prior to the addition of CTG or lytic detection system reagents. Plates were rocked for 15 minutes prior to their luminescence readout on the Tecan Spark Plate reader (30086376).

CTNNB1 [2] = molecular target: T2, CTNNB1 (Homo sapiens, UniProt P35222); experiment: Western blotting of CTNNB1 in cells; assay type: cell-based; settings: proteasome dependence
T2 construct: endogenous in cells; host or cells: HEK293T, HT29, COLO-201, SW480
T2 sequence (P35222 1-781): T1 sequence (P35222 1-781)
Protocol: Pelleted cells are lysed with CST buffer containing protease inhibitor cocktail (Pierce A32955). Samples were centrifuged at 20,000 g for 20 min at 4° C. to remove cell debris. Samples' protein content was normalized to run 30 μg per well. Samples were then boiled for 8 min at 90° C. after addition of 4×reducing Laemmli SDS sample loading buffer (Alfa Aesar) and ran on precast 4-20% Criterion TGX gels (Bio-Rad).
Antibodies to CTNNB1 (Cell Signaling Technology, 8814S), GAPDH (Proteintech Group Inc., 60004-1-Ig or Cell Signaling Technology, 14C10), and DDDDK tag (Abcam, ab205606) were diluted per recommended manufacturers' procedures. Proteins were resolved by SDS/PAGE and transferred to nitrocellulose membranes using the BioRad system (1704271 and 1704150). Blots were blocked with 5% BSA in Tris-buffered saline containing Tween 20 (TBST) solution for 1 hour at room temperature, washed in TBST, and probed with primary antibody diluted in recommended diluent per manufacturer overnight at 4° C. Following washes with TBST, the blots were incubated in the dark with secondary antibodies purchased from Ly-Cor and used at 1:10,000 dilution in 5% BSA in TBST at room temperature. Blots were visualized using an Odyssey Li-Cor scanner after additional washes. If additional primary antibody incubations were required the membrane was stripped using ReBlot Plus Strong Antibody Stripping Solution (EMD Millipore, 2504), washed and blocked again before being reincubated with primary antibody.

[3] = molecular target: T3, pure human CTNNB1 protein (Homo sapiens, UniProt P35222); experiment: Gel-based ABPP with CTNNB1 pure protein (IA-Rhodamine displacement); assay type: binding; settings: displacement of cysteine-reactive fluorescent probe
T3 sequence (P35222 1-781): T1 sequence (P35222 1-781)
Protocol: CTNNB1 pure protein (0.1 μg/25 μL in PBS) was treated with either DMSO vehicle or covalent ligand at 37° C. for 30 min, and subsequently treated with 0.1 μM IA-Rhodamine (Setareh Biotech) for 1 h at RT in the dark. The reaction was stopped by addition of 4×reducing Laemmli SDS sample loading buffer (Alfa Aesar). After boiling at 95° C. for 5 min, the samples were separated on precast 4-20% Criterion TGX gels (Bio-Rad) and were analyzed by in-gel fluorescence using a ChemiDoc MP (Bio-Rad).

CTNNB1 pure protein = molecular target: T4, CTNNB1 pure protein (Homo sapiens, UniProt P35222); experiment: NF686 probe labeling on CTNNB1 pure protein; assay type: binding; settings: alkyne probe, click to fluorescent azide, in-gel fluorescence
T4 sequence (P35222 1-781): T1 sequence (P35222 1-781)
Protocol: CTNNB1 pure protein (0.2 μg/50 μL in PBS) was treated with either DMSO vehicle or NF686 at 37° C. for 30 min. Click reagents Azide-Fluor 545 (Click Chemistry Tools, Inc. AZ109-5), Copper (II) Sulfate, and TBTA (TCI Chemicals, T2993) were added to have a final concentration of 21.8 μM, 873.4 μM, and 47.2 μg/mL, respectively, for 1 hr at RT in the dark. The reaction was stopped by addition of 4×reducing Laemmli SDS sample loading buffer (Alfa Aesar). After boiling samples at 95° C. for 5 min, the samples were separated on precast 4-20% Criterion TGX gels (Bio-Rad). Probe-labeled proteins were analyzed by in-gel fluorescence using a ChemiDoc MP (Bio-Rad).

CTNNB1 [4] = molecular target: T2, CTNNB1; experiment: Alkyne probe enrichment of CTNNB1 from cells; assay type: cell-based; settings: in cells; GAPDH as unrelated target
[5] = molecular target: T5, proteome-wide cysteine-reactivity (C619 on CTNNB1) (Homo sapiens, UniProt P35222); experiment: isoDTB-ABPP, proteome-wide cysteine-reactivity in cells; assay type: cell-based
T5 construct: endogenous in cells
T5 sequence (P35222 1-781): T1 sequence (P35222 1-781)
Source text: We next wanted to confirm that EN83 engages CTNNB1 in cells. […] We next performed a mass spectrometry-based ABPP or isodesthiobiotin-ABPP (isoDTB-ABPP) to map overall proteome-wide cysteine-reactivity of EN83 in cells using previously established methods. […] Among the off-targets of EN83, none of the targets were within the Wnt signaling pathway, including AXIN1, BTRC, or GSK3A or GSK3B.

CTNNB1 [6] = molecular target: T2, CTNNB1; experiment: Cellular thermal shift assay; assay type: cell-based; settings: cellular treatment
[7] = system: FLAG-tagged wild-type, C439S, C466S, C520S, or C619S mutant CTNNB1; experiment: Degradation of FLAG-tagged wild-type or cysteine-to-serine mutant CTNNB1 in cells; assay type: cell-based; settings: FLAG-tagged CTNNB1 wild-type vs C439S
Source text: We next sought to confirm the contributions of the cysteines targeted by EN83 in CTNNB1 to CTNNB1 degradation.

| CTNNB1 protein levels by Western blotting (CTNNB1 [2]) | SMILES | CTNNB1 HiBiT levels [1] | binding to CTNNB1 by gel-based ABPP [3] | other results |
| --- | --- | --- | --- | --- |
| confirmed to be proteasome-dependent | COc1ccc(C(F)(F)F)cc1C1CCCN1C(=O)CCl (stereo not drawn) [NF740, 2-chloro-1-(2-(2-methoxy-5-(trifluoromethyl)phenyl)pyrrolidin-1-yl)ethan-1-one] | lowering CTNNB1 HiBiT levels in HEK293 cells in a dose-responsive manner | tolerated | – |
| confirmed to be proteasome-dependent | COc1ccc(C(F)(F)F)c(C2CCCN2C(=O)CCl)c1 (stereo not drawn) [NF741, 2-chloro-1-(2-(5-methoxy-2-(trifluoromethyl)phenyl)pyrrolidin-1-yl)ethan-1-one] | lowering CTNNB1 HiBiT levels in HEK293 cells in a dose-responsive manner | tolerated | – |
| – | C#CCCCNC(=O)c1ccc(OC)c([C@@H]2CCCN2C(=O)CCl)c1 [NF686, (S)-3-(1-(2-chloroacetyl)pyrrolidin-2-yl)-4-methoxy-N-(pent-4-yn-1-yl)benzamide] | – | – | direct probe labeling of pure CTNNB1 protein (CTNNB1 pure protein): direct covalent dose-responsive probe labeling of pure CTNNB1 protein; enrichment of CTNNB1 from cells with alkyne probe (CTNNB1 [4]): CTNNB1 could be enriched from cells with the probes without enriching unrelated targets such as GAPDH |
| – | COc1ccc(OC)c(C2CCCN2C(=O)CCl)c1 (racemic) [EN83] | dose-responsive CTNNB1 loss that was significantly attenuated by proteasome or NEDDylation inhibition | dose-responsively displaced cysteine-reactive fluorescent probe labeling of pure human CTNNB1 protein | number of other targets significantly engaged by over 50% ([5]; among 8251 cysteines detected and quantified, three biological replicates): 139; proteome-wide selectivity ([5]; isoDTB-ABPP in cells): only moderately selective; engagement of CTNNB1 cysteine in cells ([5]; isoDTB-ABPP, three biological replicates): significantly engaged C619 on CTNNB1; thermal stability of CTNNB1 in cells (CTNNB1 [6]): significant thermal destabilization of CTNNB1 in cells; effect of cysteine mutation on CTNNB1 degradation [7]: mutation of C466, C520, or C619, but not C439, to serines significantly attenuated CTNNB1 degradation in cells |
| does not alter CTNNB1 levels | CCC(=O)N1CCCC1c1cc(OC)ccc1OC (stereo not drawn) [NF602, 1-(2-(2,5-dimethoxyphenyl)pyrrolidin-1-yl)propan-1-one] | does not alter CTNNB1 levels | does not show binding to CTNNB1 | – |

| SMILES | CTNNB1 protein levels by Western blotting (CTNNB1 [2]) | CTNNB1 HiBiT levels [1] | binding to CTNNB1 by gel-based ABPP [3] | other results |
| --- | --- | --- | --- | --- |
| COc1ccc(C(F)(F)F)cc1C1CCCN1C(=O)/C=C/C(=O)c1ccccc1 (stereo not drawn) [NF765, (E)-1-(2-(2-methoxy-5-(trifluoromethyl)phenyl)pyrrolidin-1-yl)-4-phenylbut-2-ene-1,4-dione] | lowered CTNNB1 protein levels in cells in a proteasome-dependent manner | more potent loss of CTNNB1 HiBiT levels | improved CTNNB1 binding | – |
| COc1ccc(C(F)(F)F)c(C2CCCN2C(=O)/C=C/C(=O)c2ccccc2)c1 (stereo not drawn) [NF764, (E)-1-(2-(5-methoxy-2-(trifluoromethyl)phenyl)pyrrolidin-1-yl)-4-phenylbut-2-ene-1,4-dione] | lowered CTNNB1 protein levels in cells in a proteasome-dependent manner | more potent loss of CTNNB1 HiBiT levels | improved CTNNB1 binding | – |
